Here are results for 6 molecules from DBAASP.

Each structure is given as a SMILES string. In brackets after ≈: the same amount, converted by molar mass.

Among the test systems are Escherichia coli O157:H7; Bacillus subtilis C626; Escherichia coli D31; Escherichia coli; Escherichia coli NIHJ.
What all share (assay): ≥ marks a high value that may be exact or a test limit, other limits are often not marked, values filed in µg/mL are converted to µM
Assay [1] relates to Staphylococcus aureus C622.
Assay [2] relates to Acinetobacter baumannii ATCC 17978.
Assay [3] relates to Staphylococcus aureus CCT 2580.
Assay [4] relates to Bacillus cereus ATCC 11778.
For assay [5], the system named is Pseudomonas aeruginosa ATCC 15422.
Assay [6] relates to Escherichia coli CCT 1457.
Assay [7] concerns Staphylococcus aureus ATCC 35556.
The subject of assay [8] is Acinetobacter baumannii ATCC 19606.
Assay [9] has as its system Salmonella enterica subsp. enterica serovar Typhimurium ATCC 700931.
Assay [10] deals with Staphylococcus aureus ATCC 29213.
For assay [11], the system named is Escherichia coli MTCC 0723.
For assay [12], the system named is Acinetobacter johnsonii NCDC 0072.
Assay [13] deals with Bacillus cereus NCDC 0240.
Assay [14] concerns Salmonella enterica subsp. enterica serovar Typhimurium ATCC 14028.
For assay [15], the system named is Pseudomonas aeruginosa NCDC 0105.
Assay [16] concerns Staphylococcus aureus NCDC 0111.
Assay [17] relates to Pseudomonas aeruginosa ATCC 27853.
Assay [18] deals with Klebsiella pneumoniae ATCC 700603.
The subject of assay [19] is Bacillus subtilis ATCC 6051.
Assay [20] concerns Pseudomonas aeruginosa PAO1.
The subject of assay [21] is Listeria monocytogenes ATCC 19111.
Assay [22] deals with Klebsiella pneumoniae XJ75297.
In assay [23] the test system is Pseudomonas aeruginosa XJ75315.
Assay [24] has as its system Salmonella typhimurium SL1344.
The test system of assay [25] is Staphylococcus epidermidis.
Assay [26] concerns Escherichia coli ATCC 35218.
The subject of assay [27] is Shigella flexneri ATCC 12022.
Assay [28] has as its system Escherichia coli ATCC 25922.
Assay [29] relates to Pectobacterium carotovorum.
Assay [30] deals with Micrococcus luteus ATCC 9341.
In assay [31] the test system is Streptococcus pyogenes COOK.
For assay [32], the system named is Staphylococcus aureus 209P.
Assay [33] relates to Bacillus subtilis ATCC 6633.

Regarding `CC[C@H](C)[C@H](NC(=O)[C@H](Cc1c[nH]c2ccccc12)NC(=O)[C@H](CCCN=C(N)N)NC(=O)[C@H](Cc1c[nH]c2ccccc12)NC(=O)[C@H](Cc1c[nH]c2ccccc12)NC(=O)[C@H](CCCCN)NC(=O)[C@@H](N)CCCN=C(N)N)C(=O)N[C@@H](CCCCN)C(=O)N[C@@H](Cc1c[nH]c2ccccc12)C(N)=O` [RKWWRWIKW], the MIC was determined as 1.25 µM (≈ 1.8 µg/mL) in the assay with Escherichia coli O157:H7, 2.5 µM (≈ 3.61 µg/mL) in [1], 20 µM (≈ 28.9 µg/mL) with Bacillus subtilis C626 and 5 µM (≈ 7.22 µg/mL) in [2].

Turning to `CC[C@H](C)[C@H](N)C(=O)N[C@@H](CC(N)=O)C(=O)N[C@@H](Cc1c[nH]c2ccccc12)C(=O)N[C@@H](CCCCN)C(=O)N[C@@H](C)C(=O)N[C@@H](CC(C)C)C(=O)N[C@@H](CC(C)C)C(=O)N[C@@H](CC(=O)O)C(=O)N[C@@H](C)C(=O)N[C@@H](C)C(=O)N[C@@H](CCCCN)C(=O)N[C@@H](CCCCN)C(=O)N[C@H](C(=O)N[C@@H](CC(C)C)C(=O)O)C(C)C` [INWKALLDAAKKVL], the MIC in assay [3] is not below 158 µM; in assay [4] it was not below 39.5 µM; in assay [5], not below 316 µM; in assay [6] it was not below 39.5 µM.

With `CC[C@H](C)[C@H](NC(=O)[C@H](Cc1c[nH]c2ccccc12)NC(=O)[C@@H](NC(=O)[C@H](Cc1c[nH]c2ccccc12)NC(=O)[C@@H]1CCCN1C(=O)[C@@H](NC(=O)[C@H](C)N)[C@@H](C)CC)[C@@H](C)CC)C(=O)N[C@@H](Cc1c[nH]c2ccccc12)C(=O)N[C@@H](CCCN=C(N)N)C(=O)N[C@@H](CC(C)C)C(=O)N[C@@H](CC(C)C)C(=O)N[C@@H](CCCN=C(N)N)C(=O)N[C@@H](CCCCN)C(=O)NCC(=O)O` [AIPWIWIWRLLRKG], the MIC was 3.75 µM (≈ 6.78 µg/mL) in [7]; 3.75 µM (≈ 6.78 µg/mL) in [8]; 15 µM (≈ 27.1 µg/mL) in assay [9]; 0.4 µM (≈ 0.723 µg/mL) in assay [10]; 7.5 µM (≈ 13.6 µg/mL) in the assay on Escherichia coli D31; 6 µM (≈ 10.8 µg/mL) in assay [11]. The MIC in assay [12] came out at 12.5 µM (≈ 22.6 µg/mL); in assay [13], 12.5 µM (≈ 22.6 µg/mL); in [14], 6 µM (≈ 10.8 µg/mL); in [15], 3 µM (≈ 5.42 µg/mL); in assay [16] it was 0.4 µM (≈ 0.723 µg/mL); in [17], 0.4 µM (≈ 0.723 µg/mL). Moreover, the MIC in assay [18] is more than 15 µM; in [19], 0.23 µM (≈ 0.416 µg/mL); in [20], 15 µM (≈ 27.1 µg/mL); in assay [21] it was 12.5 µM (≈ 22.6 µg/mL).

Turning to `CC[C@H](C)[C@H](NC(=O)[C@@H](NC(=O)[C@@H]1CCCN1C(=O)[C@@H](NC(=O)[C@@H]1CCCN1C(=O)[C@H](CCCCN)NC(=O)[C@H](CCCCN)NC(=O)[C@H](CO)NC(=O)CN)C(C)C)[C@@H](C)CC)C(=O)N[C@@H](Cc1ccc(O)cc1)C(=O)N[C@@H](CS)C(=O)N[C@@H](CC(N)=O)C(=O)N[C@@H](CCCN=C(N)N)C(=O)N[C@@H](CCCN=C(N)N)C(=O)N[C@H](C(=O)NCC(=O)N[C@@H](CCCCN)C(=O)N[C@@H](CS)C(=O)N[C@@H](CCC(N)=O)C(=O)N[C@@H](CCCN=C(N)N)C(=O)N[C@@H](CCSC)C(=O)O)[C@@H](C)O` [GSKKPVPIIYCNRRTGKCQRM], the MIC in assay [10] is 105 µM (≈ 256 µg/mL); in [22], 0.41 µM (≈ 1 µg/mL); in assay [23] it was 0.41 µM (≈ 1 µg/mL); in assay [24], 0.41 µM (≈ 1 µg/mL); in the assay on Escherichia coli it was 0.41 µM (≈ 1 µg/mL); in assay [25], 6.57 µM (≈ 16 µg/mL). In addition, the MIC was determined as 0.41 µM (≈ 1 µg/mL) in [26], 6.57 µM (≈ 16 µg/mL) in [17], 0.103 µM (≈ 0.25 µg/mL) in assay [27] and 0.41 µM (≈ 1 µg/mL) in assay [28].

In the case of `CC[C@H](C)[C@H](NC(=O)[C@H](CO)NC(=O)[C@H](CCCN=C(N)N)NC(=O)CNC(=O)[C@H](CCC(=O)O)NC(=O)[C@@H](N)CC(C)C)C(=O)N[C@@H](CO)C(=O)N[C@@H](CCCN=C(N)N)C(=O)N[C@H](C(=O)N[C@@H](CC(=O)O)C(=O)N[C@@H](CCC(=O)O)C(=O)N[C@@H](CC(C)C)C(=O)N[C@H](C(=O)N[C@@H](CCC(N)=O)C(=O)N[C@@H](CCC(N)=O)C(=O)N[C@@H](CCCN=C(N)N)C(=O)N[C@@H](CCC(N)=O)C(=O)N[C@@H](CCC(=O)O)C(=O)N[C@@H](CCCCN)C(=O)N[C@@H](CC(=O)O)C(=O)O)[C@@H](C)CC)[C@@H](C)CC` [LEGRSISRIDELIQQRQEKD], the MIC in assay [29] was 2.04 µM (≈ 4.92 µg/mL).

As for `CC[C@H](C)[C@H](NC(=O)[C@H](CC(C)C)NC(=O)[C@H](CO)NC(=O)[C@H](Cc1ccccc1)NC(=O)[C@H](CC(C)C)NC(=O)[C@@H](N)CO)C(=O)N[C@@H](CCCCN)C(=O)N[C@@H](C)C(=O)NCC(=O)N[C@@H](C)C(=O)N[C@@H](CCCCN)C(=O)N[C@@H](Cc1ccccc1)C(=O)N[C@@H](CC(C)C)C(=O)NCC(=O)N[C@@H](CCCCN)C(=O)N[C@@H](CC(N)=O)C(=O)N[C@@H](CC(C)C)C(=O)N[C@@H](CC(C)C)C(=O)N[C@@H](CCCCN)C(=O)N[C@@H](CCC(N)=O)C(=O)NCC(=O)N[C@@H](C)C(=O)N[C@@H](CCC(N)=O)C(=O)N[C@@H](Cc1ccc(O)cc1)C(=O)N[C@@H](C)C(=O)N[C@@H](C)C(=O)N[C@H]1CSSC[C@@H](C(=O)O)NC(=O)[C@H](CCC(=O)O)NC(=O)[C@H](CCCCN)NC(=O)[C@H](CO)NC(=O)[C@H](C(C)C)NC(=O)[C@H](CCCCN)NC1=O` [SLFSLIKAGAKFLGKNLLKQGAQYAACKVSKEC], the MIC was 3.56 µM (≈ 12.5 µg/mL) in the assay on Escherichia coli NIHJ; 0.444 µM (≈ 1.56 µg/mL) in assay [30]; 3.56 µM (≈ 12.5 µg/mL) in assay [31]; 1.78 µM (≈ 6.25 µg/mL) in assay [32]; 1.78 µM (≈ 6.25 µg/mL) in [33]; 28.4 µM (≈ 99.9 µg/mL) in assay [20].
